Measured values from US9610285B2, “Compositions for controlling food intake and uses therefor” (UNIVERSITY OF FLORIDA RESEARCH FOUNDATION, INCORPORATED, priority 2011, dated 2017).
Structures can show the parent of a compound that is named as a salt. Marks after values point to notes of the source that are not given here.

How the values were obtained:
Format in all cases: in vivo, rat
Male Sprague-Dawley rats [1] = assay: Palatable food intake following drug injections in binge-eating rats (Example 2); conditions: for Effect on palatable food (fat) intake, in words / Effect on palatable food (sugar) intake, in words / Effect on palatable food (sugar-fat) intake, in words: one-way ANOVA over saline, low and high dose
Source text: (§1) Male Sprague-Dawley rats, 250-300 g at the onset of the experiment, were obtained from Taconic Farms (Germantown, N.Y., USA). Rats were housed individually on a 12-h reversed light/dark cycle and given 1 wk to acclimate before diet training began.
(§2) The rats were divided into groups (n=10/group) matched for body weight and assigned to one of the following dietary conditions: (1) Binge Sugar, (2) Binge Fat or (3) Binge Sugar-Fat. All rats received palatable diets and standard rodent chow (LabDiet #5001, PMI Nutrition International, Richmond, Ind., USA; 10% fat, 20% protein, 70% carbohydrate, 3.02 kcal/g) for 12 h/day, starting 4 h after the onset of the dark cycle. Water was available ad libitum.
(§3) All palatable foods were mixed in the laboratory. The Binge Sugar group had access to a 10% (w/v) sucrose solution (Domino® Granulated Pure Cane Sugar, dissolved in tap water, 0.4 kcal/mL), the Binge Fat group had access to a 35% (w/v) fat emulsion (3.1 kcal/mL) and the Binge Sugar-Fat group had access to a 10% (w/v) sugar solution and 35% (w/v) fat emulsion (3.5 kcal/mL). Both emulsions were made with Wesson® Pure Vegetable Oil in tap water and 0.6% (w/v) Emplex, a commercially available emulsifier (American Ingredients Company, Kansas City, Mo., USA). Palatable food intakes were recorded daily. Chow intake was recorded weekly. Body weights were taken at the beginning and end of the 21-day diet period.
(§4) After 21 days on these diets, drug testing began. During testing, diet regimens were maintained. Approximately 3.5 h into the dark cycle, animals were weighed and intraperitoneal (i.p.) injections of drug were given (according to the schedule below). 30 min later (4 h into the dark cycle) palatable food and chow were made available to the rats. For the first 3 days, rats were acclimated to handling and daily vehicle injections (0.9% saline, Hospira, Lake Forest, Ill., USA, i.p. 1 mL/kg). For days 4-16 of drug testing, either vehicle or drug was alternatively administered, starting with drug on day 4. […] Intake of palatable food and chow was measured hourly after injection for 4 h and again at the end of the 12-h access period.
(§5) Palatable food and standard chow intakes following saline injections between days 4-16 were averaged. All data were analyzed using one-way ANOVAs with post hoc Multiple Comparisons, when appropriate. In Tables 4-7, values having the same letter superscript are statistically different from one another.

Male Sprague-Dawley rats [2] = assay: Standard chow intake following drug injections in binge-eating rats (Example 2); conditions: for Effect on standard chow intake, in words: one-way ANOVA over saline, low and high dose
Source text: as §1, §2, §3, §4, §5

rats = assay: Binge eating rats, palatable food and chow intake (Example 1, FIGS. 1-5); conditions: drug alone, i.p., figure legends
Protocol: Baclofen (at 1.0 and 1.8 mg/kg, administered i.p.)
Baclofen+naltrexone (mixed low and mixed high)
1. Binge Sugar (10% sucrose solution, w/v)
2. Binge Fat (35% oil emulsion, w/v)
3. Binge Sugar/Fat (10% sucrose, 35% oil emulsion, w/v)
Groups of animals (rats) were maintained on their diets for 3 weeks to establish stable binge eating behavior. After this period of time, the rats were administered three days of daily i.p. injections of saline (to acclimate to the injection procedure), and sugar/chow intake was measured after the first hour of access and then hourly for the next 3 hours, as well as at the end of the 12-h access period. After this three-day period, rats were given baclofen+naloxone, and measurements taken as described above. Other dosage amounts of baclofen and naloxone were tested, as were the effects of these compounds alone (with measurements being performed as described above). Vehicle injections were performed between the various tests in order to allow for suitable clearance of compounds from the animals. […] Thus, the treatment appears ideally suited for food addicts, hedonic overeaters and changes food choice but not appetite.

Male Sprague-Dawley rats [3] = assay: Total caloric intake following drug injections in binge-eating rats (Example 2); conditions: for Effect on total caloric intake, in words: one-way ANOVA over saline, low and high dose
Source text: as §1, §2, §3, §4, §5

[4] = Binge Fat group, 1 h, high dose (naltrexone 1.0 mg/kg, baclofen 1.8 mg/kg, or both, i.p.)
[5] = Binge Fat group, 1 h, low dose (naltrexone 0.1 mg/kg, baclofen 1.0 mg/kg, or both, i.p.)
[6] = Binge Fat group, 12 h, high dose (naltrexone 1.0 mg/kg, baclofen 1.8 mg/kg, or both, i.p.)
[7] = Binge Fat group, 12 h, low dose (naltrexone 0.1 mg/kg, baclofen 1.0 mg/kg, or both, i.p.)
[8] = Binge Sugar group, 1 h, high dose (naltrexone 1.0 mg/kg, baclofen 1.8 mg/kg, or both, i.p.)
[9] = Binge Sugar group, 1 h, low dose (naltrexone 0.1 mg/kg, baclofen 1.0 mg/kg, or both, i.p.)
[10] = Binge Sugar group, 12 h, high dose (naltrexone 1.0 mg/kg, baclofen 1.8 mg/kg, or both, i.p.)
[11] = Binge Sugar group, 12 h, low dose (naltrexone 0.1 mg/kg, baclofen 1.0 mg/kg, or both, i.p.)
[12] = Binge Sugar-Fat group, 1 h, high dose (naltrexone 1.0 mg/kg, baclofen 1.8 mg/kg, or both, i.p.)
[13] = Binge Sugar-Fat group, 1 h, low dose (naltrexone 0.1 mg/kg, baclofen 1.0 mg/kg, or both, i.p.)
[14] = Binge Sugar-Fat group, 12 h, high dose (naltrexone 1.0 mg/kg, baclofen 1.8 mg/kg, or both, i.p.)
[15] = Binge Sugar-Fat group, 12 h, low dose (naltrexone 0.1 mg/kg, baclofen 1.0 mg/kg, or both, i.p.)

O=C1CC[C@@]2(O)[C@H]3Cc4ccc(O)c5c4[C@@]2(CCN3CC2CC2)[C@H]1O5 [Naltrexone, naltrexone hydrochloride]
1-H Palatable Food Intake (Male Sprague-Dawley rats [1]; [4]): 9.9 ± 2.0 kcal
Palatable food intake as a percent of intake after saline injections, 1-H Intake (%) (Male Sprague-Dawley rats [1]; [4]): 59%
Palatable food intake as a percent of intake after saline injections, 1-H Intake (%) (Male Sprague-Dawley rats [1]; [5]): 70%
Effect on palatable food (fat) intake, in words (Male Sprague-Dawley rats [1]; Binge Fat group, 1 h): no significant effect
12-H Palatable Food Intake (Male Sprague-Dawley rats [1]; [6]): 53.3 ± 4.5 kcal
Palatable food intake as a percent of intake after saline injections, 12-H Intake (%) (Male Sprague-Dawley rats [1]; [6]): 91%
12-H Palatable Food Intake (Male Sprague-Dawley rats [1]; [7]): 49.9 ± 3.6 kcal
Palatable food intake as a percent of intake after saline injections, 12-H Intake (%) (Male Sprague-Dawley rats [1]; [7]): 85%
Effect on palatable food (fat) intake, in words (Male Sprague-Dawley rats [1]; Binge Fat group, 12 h): no significant effect
1-H Palatable Food Intake (Kcal) (Male Sprague-Dawley rats [1]; [8]): 2.6 ± 0.4^a Kcal
Palatable food intake as a percent of intake after saline injections, 1-H Intake (%) (Male Sprague-Dawley rats [1]; [8]): 92%
1-H Palatable Food Intake (Kcal) (Male Sprague-Dawley rats [1]; [9]): 4.4 ± 0.7^a Kcal
Palatable food intake as a percent of intake after saline injections, 1-H Intake (%) (Male Sprague-Dawley rats [1]; [9]): 158%
Effect on palatable food (sugar) intake, in words (Male Sprague-Dawley rats [1]; Binge Sugar group, 1 h): significantly decreased
12-H Palatable Food Intake (Kcal) (Male Sprague-Dawley rats [1]; [10]): 10.8 ± 1.8^r Kcal
Palatable food intake as a percent of intake after saline injections, 12-H Intake (%) (Male Sprague-Dawley rats [1]; [10]): 85%
12-H Palatable Food Intake (Kcal) (Male Sprague-Dawley rats [1]; [11]): 18.7 ± 2.4^r Kcal
Palatable food intake as a percent of intake after saline injections, 12-H Intake (%) (Male Sprague-Dawley rats [1]; [11]): 92%
Effect on palatable food (sugar) intake, in words (Male Sprague-Dawley rats [1]; Binge Sugar group, 12 h): significantly decreased
1-H Palatable Food Intake (Male Sprague-Dawley rats [1]; [12]): 17.6 ± 3.5 kcal
Palatable food intake as a percent of intake after saline injections, 1-H Intake (%) (Male Sprague-Dawley rats [1]; [12]): 75%
1-H Palatable Food Intake (Male Sprague-Dawley rats [1]; [13]): 17.3 ± 1.7 kcal
Palatable food intake as a percent of intake after saline injections, 1-H Intake (%) (Male Sprague-Dawley rats [1]; [13]): 74%
Effect on palatable food (sugar-fat) intake, in words (Male Sprague-Dawley rats [1]; Binge Sugar-Fat group, 1 h): no effect
12-H Palatable Food Intake (Male Sprague-Dawley rats [1]; [14]): 83.3 ± 8.1 kcal
Palatable food intake as a percent of intake after saline injections, 12-H Intake (%) (Male Sprague-Dawley rats [1]; [14]): 109%
12-H Palatable Food Intake (Male Sprague-Dawley rats [1]; [15]): 70.6 ± 3.4 kcal
Palatable food intake as a percent of intake after saline injections, 12-H Intake (%) (Male Sprague-Dawley rats [1]; [15]): 92%
Effect on palatable food (sugar-fat) intake, in words (Male Sprague-Dawley rats [1]; Binge Sugar-Fat group, 12 h): no effect
1-H Chow Intake (Male Sprague-Dawley rats [2]; [4]): 10.1 ± 1.2 kcal
1-H Chow Intake (Male Sprague-Dawley rats [2]; [5]): 8.5 ± 1.1 kcal
12-H Chow Intake (Male Sprague-Dawley rats [2]; [6]): 37.0 ± 3.4 kcal
12-H Chow Intake (Male Sprague-Dawley rats [2]; [7]): 34.1 ± 4.3 kcal
1-H Chow Intake (Male Sprague-Dawley rats [2]; [8]): 20.1 ± 1.3 kcal
1-H Chow Intake (Male Sprague-Dawley rats [2]; [9]): 25.5 ± 3.2 kcal
12-H Chow Intake (Kcal) (Male Sprague-Dawley rats [2]; [10]): 78.6 ± 4.7^b Kcal
12-H Chow Intake (Kcal) (Male Sprague-Dawley rats [2]; [11]): 73.7 ± 5.1^a Kcal
1-H Chow Intake (Male Sprague-Dawley rats [2]; [12]): 7.1 ± 0.9 kcal
1-H Chow Intake (Male Sprague-Dawley rats [2]; [13]): 6.6 ± 1.0 kcal
Effect on standard chow intake, in words (Male Sprague-Dawley rats [2]; Binge Sugar-Fat group, 1 h): no effect
12-H Chow Intake (Male Sprague-Dawley rats [2]; [14]): 27.4 ± 2.6 kcal
12-H Chow Intake (Male Sprague-Dawley rats [2]; [15]): 26.4 ± 1.9 kcal
Effect on standard chow intake, in words (Male Sprague-Dawley rats [2]; Binge Sugar-Fat group, 12 h): no effect
Effect on standard chow intake, in words (Male Sprague-Dawley rats [2]; Fat group, 1 h): no effect
Effect on standard chow intake, in words (Male Sprague-Dawley rats [2]; Fat group, 12 h): no effect
Effect on standard chow intake, in words (Male Sprague-Dawley rats [2]; Sugar group, 1 h): no effect
Effect on standard chow intake, in words (Male Sprague-Dawley rats [2]; Sugar group, 12 h): stimulated chow intake
Effect on intake of oil-containing palatable foods (rats; oil containing groups (Binge Fat, Binge Sugar/Fat)): trend toward reducing food intake
Effect on binge eating of sugar (rats; sugar-binging rats): no effect
1-H Total Caloric Intake (Male Sprague-Dawley rats [3]; [4]): 19.9 ± 3.2 kcal
1-H Total Caloric Intake (Male Sprague-Dawley rats [3]; [5]): 20.2 ± 3.0 kcal
12-H Total Caloric Intake (Male Sprague-Dawley rats [3]; [6]): 90.3 ± 8.3 kcal
12-H Total Caloric Intake (Male Sprague-Dawley rats [3]; [7]): 84.0 ± 7.9 kcal
1-H Total Caloric Intake (Male Sprague-Dawley rats [3]; [8]): 22.6 ± 1.7 kcal
1-H Total Caloric Intake (Kcal) (Male Sprague-Dawley rats [3]; [9]): 29.9 ± 3.9^a Kcal
12-H Total Caloric Intake (Male Sprague-Dawley rats [3]; [10]): 89.4 ± 6.4 kcal
12-H Total Caloric Intake (Male Sprague-Dawley rats [3]; [11]): 85.4 ± 7.5 kcal
1-H Total Caloric Intake (Male Sprague-Dawley rats [3]; [12]): 24.8 ± 4.4 kcal
1-H Total Caloric Intake (Male Sprague-Dawley rats [3]; [13]): 23.9 ± 2.7 kcal
12-H Total Caloric Intake (Male Sprague-Dawley rats [3]; [14]): 110.7 ± 10.7 kcal
12-H Total Caloric Intake (Male Sprague-Dawley rats [3]; [15]): 97.0 ± 5.7 kcal
Effect on total caloric intake, in words (Male Sprague-Dawley rats [3]; Fat group, 1 h): no effect
Effect on total caloric intake, in words (Male Sprague-Dawley rats [3]; Fat group, 12 h): no effect
Effect on total caloric intake, in words (Male Sprague-Dawley rats [3]; Sugar group, 1 h): significantly increased
Effect on total caloric intake, in words (Male Sprague-Dawley rats [3]; Sugar group, 12 h): differences were no longer evident
Effect on total caloric intake, in words (Male Sprague-Dawley rats [3]; Sugar-Fat group, 1 h): no effect
Effect on total caloric intake, in words (Male Sprague-Dawley rats [3]; Sugar-Fat group, 12 h): no effect
